The record followed here is patent US12538923B2, “Herbicidal compositions comprising imazethapyr” (BASF SE, priority 2024, dated 2026).

Assay type in all cases: in vivo
In experiment [1] the test system is Amaranthus hybridus (AMACH). As to the kind of experiment: Post-emergence field trial, herbicidal activity on AMACH. The method, then:
(§1) In the examples below, using the method of S. R. Colby (1967) “Calculating synergistic and antagonistic responses of herbicide combinations”, Weeds 15, p. 22ff., the value E, which is expected if the activity of the individual active compounds is only additive, was calculated:
(§2) [formula] • where • X=percent activity using active herbicide A at an application rate a; • Y=percent activity using active herbicide B (e.g. imazethapyr) at an application rate b; • E=expected activity (in %) by A+B at application rates a+b.
(§3) If the value found experimentally is higher than the value E calculated according to Colby, a synergistic effect is present.
(§4) On field test sites, natural weed infestation or seeded weeds were treated post-emergence of the weeds.
(§5) In the field trials, the weeds were treated as indicated below.
(§6) In the following experiments, the herbicidal activity for the individual herbicidal compositions (solo and mixture applications) was assessed at the indicated days after treatment (DAT). The assessments for the damage on undesired weeds caused by the composition was carried out using a scale from 0 to 100%, compared to the untreated control plants. Here, 0 means no damage and 100 means complete destruction of the plants.
Herbicide A-1 (342 g/I) and imazethapyr-ammonium were, together with addition of 0.25 l/ha Dash® MSO Max as adjuvant, formulated in water as distribution medium (water volume 200 l/ha) and sprayed with commercial flat fan nozzles.

In experiment [2] the test system is Amaranthus cruentus (AMACR). As to the kind of experiment: Post-emergence field trial, herbicidal activity on AMACR. Particulars: height 20-25 cm, 25 DAT, 0.25 l/ha Dash MSO Max. The procedure:
as §1, §2, §3, §4, §5
(§7) In the following experiments, the herbicidal activity for the individual herbicidal compositions (solo and mixture applications) was assessed at the indicated days after treatment (DAT). The assessments for the damage on undesired weeds caused by the composition was carried out using a scale from 0 to 100%, compared to the untreated control plants. Here, 0 means no damage and 100 means complete destruction of the plants. […]

In experiment [3] the test system is Amaranthus viridis (AMAVI). As to the kind of experiment: Post-emergence field trial, herbicidal activity on AMAVI. Particulars: growth stage 16-18, height 10-15 cm, 20 DAT, 0.5% MSO. The method, then: as §1, §2, §3, §4, §5, §6
(§8) Herbicide A-1 (342 g/l) and imazethapyr-ammonium were, together with addition of 0.5% MSO (methylated seed oil) as adjuvant, formulated in water as distribution medium (water volume […]) and sprayed with commercial flat fan nozzles.

Experiment [4] has as its system Spermacoce latifolia (BOILF). As to the kind of experiment: Post-emergence field trial, herbicidal activity on BOILF. As to conditions: 21 DAT. The method, then: as §1, §2, §3, §4, §5, §6, §8
The test system of experiment [5] is Brachiaria plantaginea (BRAPL). As to the kind of experiment: Post-emergence field trial, herbicidal activity on BRAPL. As to conditions: for % herbicidal activity: Table 2.5, 21 DAT, growth stage 24. The procedure: as §1, §2, §3, §4, §5, §6, §8
Experiment [6] deals with Digitaria horizontalis (DIGHO). Put plainly: Post-emergence field trial, herbicidal activity on DIGHO. As to conditions: Table 2.5, 21 DAT, growth stage 24. The procedure: as §1, §2, §3, §4, §5, §7
Experiment [7] deals with Digitaria insularis (DIGIN). As to the kind of experiment: Post-emergence field trial, herbicidal activity on DIGIN. As to conditions: Table 2.4, 21 DAT, weed height 20-40 cm. The procedure: as §1, §2, §3, §4, §5, §7
For experiment [8], the system named is Eleusine indica (ELEIN). As to the kind of experiment: Post-emergence field trial, herbicidal activity on ELEIN. Particulars: 21 DAT. The method, then: as §1, §2, §3, §4, §5, §6, §8
Experiment [9] relates to Euphorbia heterophylla (EPHHL). Put plainly: Post-emergence field trial, herbicidal activity on EPHHL. As to conditions: 21 DAT. The method, then: as §1, §2, §3, §4, §5, §6, §8
Experiment [10] deals with Galinsoga parviflora (GASPA). Put plainly: Post-emergence field trial, herbicidal activity on GASPA. As to conditions: Table 2.6, 21 DAT, weed height 15-35 cm. The procedure:
as §1, §2, §3, §4, §5, §7

For experiment [11], the system named is Ipomoea triloba (IPOTR). Put plainly: Post-emergence field trial, herbicidal activity on IPOTR. As to conditions: 21 DAT. The procedure: as §1, §2, §3, §4, §5, §6, §8
The subject of experiment [12] is Portulaca oleracea (POROL). As to the kind of experiment: Post-emergence field trial, herbicidal activity on POROL. As to conditions: growth stage 14-16, height 5-10 cm, 20 DAT, 0.5% MSO. The method, then:
as §1, §2, §3, §4, §5, §7

Regarding `CCOC(=O)COc1ccccc1Oc1nc(-n2c(=O)cc(C(F)(F)F)n(C)c2=O)c(F)cc1Cl` [Herbicide A-1, ethyl 2-[2-[[3-chloro-5-fluoro-6-[3-methyl-2,6-dioxo-4-(trifluoromethyl)pyrimidin-1-yl]-2-pyridyl]oxy]phenoxy]acetate], the “% herbicidal activity A-1” value in experiment [1] (AMACH, height 20-25 cm, A-1 25 g ai/ha solo, 25 DAT, 0.25 l/ha Dash MSO Max) is listed as 91%; in experiment [2] (A-1 25 g ai/ha solo) it was 93%; in experiment [3] (A-1 25 g ai/ha solo) it was 69%; in [3] (A-1 50 g ai/ha solo), 84%; in experiment [4] (BOILF, growth stage 40, A-1 25 g ai/ha solo, 0.5% MSO) it was 81%; in experiment [5] (BRAPL, growth stage 21-25, height 10-15 cm, A-1 50 g ai/ha solo, 20 DAT, 0.5% MSO) it was 73%. The “% herbicidal activity A-1” value in experiment [8] (ELEIN, height 20-25 cm, A-1 25 g ai/ha solo, 0.5% MSO) worked out at 45%; in [9] (EPHHL, growth stage 35, A-1 50 g ai/ha solo, 0.5% MSO), 86%; in experiment [11] (IPOTR, growth stage 35, A-1 25 g ai/ha solo, 0.5% MSO) it was 61%; in [12] (A-1 50 g ai/ha solo), 58%. The “% herbicidal activity” value in [1] (Table 3.1, 21 DAT, A-1 50 g ai/ha alone, growth stage 35) is given as 85%; in experiment [4] (Table 3.1, A-1 25 g ai/ha alone, growth stage 40) it was 81%; in experiment [5] (A-1 25 g ai/ha alone) it was 83%; in [5] (A-1 50 g ai/ha alone), 93%; in [6] (A-1 50 g ai/ha alone), 50%; in experiment [7] (A-1 50 g ai/ha alone), 38%. Moreover, the “% herbicidal activity” value in experiment [8] (Table 2.7, A-1 50 g ai/ha alone, growth stage 35-61, height 3-5 cm) is recorded as 87%; in experiment [8] (Table 3.2, A-1 50 g ai/ha alone, weed height 20-25 cm), 55%; in experiment [9] (Table 2.6, A-1 50 g ai/ha alone, weed height 15-35 cm), 96%; in experiment [9] (Table 2.7, A-1 25 g ai/ha alone, growth stage 18-65, height 5-15 cm), 94%; in [10] (A-1 50 g ai/ha alone) it was 92%; in experiment [11] (Table 3.1, A-1 25 g ai/ha alone, growth stage 35), 61%.
Regarding `CCc1cnc(C2=NC(C)(C(C)C)C(=O)N2)c(C(=O)O)c1.N` (stereo not drawn) [Herbicide B-2, imazethapyr-ammonium, reference compound], the “% herbicidal activity B-2” value in experiment [1] (AMACH, height 20-25 cm, B-2 100 g ai/ha solo, 25 DAT, 0.25 l/ha Dash MSO Max) is 7%; in experiment [2] (B-2 100 g ai/ha solo), 58%; in experiment [3] (B-2 100 g ai/ha solo), 22%; in experiment [4] (BOILF, growth stage 40, B-2 100 g ai/ha solo, 0.5% MSO), 23%; in [5] (BRAPL, growth stage 21-25, height 10-15 cm, B-2 100 g ai/ha solo, 20 DAT, 0.5% MSO), 0%; in [8] (ELEIN, height 20-25 cm, B-2 100 g ai/ha solo, 0.5% MSO), 0%. Moreover, the “% herbicidal activity B-2” value in experiment [9] (EPHHL, growth stage 35, B-2 100 g ai/ha solo, 0.5% MSO) was found to be 10%; in experiment [11] (IPOTR, growth stage 35, B-2 100 g ai/ha solo, 0.5% MSO), 22%; in [12] (B-2 100 g ai/ha solo), 30%. Further, the “% herbicidal activity” value in [5] (B-2 100 g ai/ha alone, listed as with A-1 25 g ai/ha) was determined as 0%; in experiment [5] (B-2 100 g ai/ha alone, listed as with A-1 50 g ai/ha), 0%; in [6] (B-2 100 g ai/ha alone), 0%; in experiment [7] (B-2 100 g ai/ha alone) it was 13%; in experiment [8] (Table 2.7, B-2 100 g ai/ha alone, growth stage 35-61, height 3-5 cm), 10%; in [9] (Table 2.6, B-2 100 g ai/ha alone, weed height 15-35 cm), 0%. Also, the “% herbicidal activity” value in [9] (Table 2.7, B-2 100 g ai/ha alone, growth stage 18-65, height 5-15 cm) is 20%; in [10] (B-2 100 g ai/ha alone) it was 0%.
